Results from patent publication US20250002473A1, “QUINOXALINE DERIVED SULFONAMIDES WITH EGFR DEGRADATION ACTIVITIES AND THEIR USES THEREOF” (Accutar Biotechnology Inc., priority 2023, published 2025).
Where two headings read alike, the source gives them in different places.

What was measured:
Type in all cases: cell-based
[1] = molecular target: T1, BaF3_ASV (EGFR_A776inASV) (Homo sapiens, UniProt P00533, DUP767-769); experiment: EGFR degradation assay (western blot), BaF3_ASV cells; conditions: BaF3_ASV cells, compounds 24 h, western blot; read-out: BaF3_ASV DC50
T1 construct: expressed in transfected cells; host or cells: Ba/F3 (engineered)
T1 sequence (P00533 with tags, fused parts or gaps DUP767-769): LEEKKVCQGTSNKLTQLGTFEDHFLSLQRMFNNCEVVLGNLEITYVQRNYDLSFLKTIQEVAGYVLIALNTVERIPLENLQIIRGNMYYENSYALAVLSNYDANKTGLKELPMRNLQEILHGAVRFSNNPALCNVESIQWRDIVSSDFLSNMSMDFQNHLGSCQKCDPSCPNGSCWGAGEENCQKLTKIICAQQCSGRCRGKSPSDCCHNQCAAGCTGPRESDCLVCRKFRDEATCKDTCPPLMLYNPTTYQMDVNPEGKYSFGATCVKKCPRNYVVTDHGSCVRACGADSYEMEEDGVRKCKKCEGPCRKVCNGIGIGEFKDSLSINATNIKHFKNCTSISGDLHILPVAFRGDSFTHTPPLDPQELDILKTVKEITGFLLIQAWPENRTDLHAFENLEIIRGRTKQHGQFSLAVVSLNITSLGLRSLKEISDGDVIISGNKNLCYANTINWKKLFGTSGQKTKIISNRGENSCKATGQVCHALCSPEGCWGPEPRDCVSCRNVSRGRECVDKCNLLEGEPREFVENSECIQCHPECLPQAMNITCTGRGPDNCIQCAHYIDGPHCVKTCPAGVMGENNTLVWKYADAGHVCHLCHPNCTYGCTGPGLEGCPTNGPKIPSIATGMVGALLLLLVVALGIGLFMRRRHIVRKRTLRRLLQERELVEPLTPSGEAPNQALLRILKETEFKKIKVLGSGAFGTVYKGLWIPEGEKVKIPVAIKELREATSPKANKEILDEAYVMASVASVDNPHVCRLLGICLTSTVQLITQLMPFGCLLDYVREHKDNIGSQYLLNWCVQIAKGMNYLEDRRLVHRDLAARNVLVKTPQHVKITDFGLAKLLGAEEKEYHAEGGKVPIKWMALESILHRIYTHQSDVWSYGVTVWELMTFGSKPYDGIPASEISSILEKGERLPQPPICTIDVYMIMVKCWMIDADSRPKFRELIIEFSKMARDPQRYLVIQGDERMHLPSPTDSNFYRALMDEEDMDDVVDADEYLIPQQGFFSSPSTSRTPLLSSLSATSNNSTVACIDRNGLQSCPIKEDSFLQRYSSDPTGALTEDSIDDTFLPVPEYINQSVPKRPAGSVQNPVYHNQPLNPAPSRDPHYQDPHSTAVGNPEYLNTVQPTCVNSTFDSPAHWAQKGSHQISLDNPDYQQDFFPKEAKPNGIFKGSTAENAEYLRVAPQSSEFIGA
Protocol: (§1) A431 (EGFR_WT), NCl-H2073 (EGFR_WT), NCl-H292 (EGFR_WT), BaF3_YVAM (Her2_A775insYVAM), BaF3_SVD (EGFR_D770insSVD), BaF3_ASV (EGFR_A776inASV), or BaF3_DTC (EGFR_Exon19del/T790M/C797S) cells were seeded in a 24-well plate at a density of 4×10^5 cells per well for EGFR WT cells and 8× cells per well for EGFR or Her2 mutant cells, and the plates were incubated overnight. The cells were treated with the desired compounds for 24 h. The culture medium was removed, and 100 μL of RIPA buffer (Beyotime, P0013B) containing 1% Protease Inhibitor Cocktail (Bimake, B14001), 1% Phosphatase Inhibitor Cocktail 2 (Sigma, P5726), and 1% Phosphatase Inhibitor Cocktail 3 (Sigma, P0044) were added to lyse the cells. Then, the cell lysates were transferred to 1.5 mL microcentrifuge tubes and centrifuged at 12,000 rpm and 4° C. for 30 min. The supernatants were transferred into new tubes, and the protein concentration was determined using the BCA protein quantification method. All samples were diluted to the same concentration using RIPA buffer, loading buffer was added, samples were denatured, and 15 μg of protein per lane was loaded onto a SurePAGE 4-20% Bis-Tris gel. Samples were separated via electrophoresis in MOPS running buffer at 180 V for 100 min. Then, proteins were transferred onto PVDF membranes using the MiniBlot™ Electrophoretic Transfer Cell Device (Beyotime, E6050). The membrane was blocked using block buffer (LI-COR 927-60001) to prevent non-specific binding. The membrane was incubated with primary antibodies (1:500 dilution, EGFR-CST4405, 1:2000 dilution, Tubulin-ABclonal #AC021) at 4° C. overnight. The membrane was washed three times with 1× TBST buffer for 15 min each. The membrane was incubated with secondary antibodies IRDye 680RD Goat anti-Rabbit IgG Secondary Antibody (1:2000 dilution, LI-COR 926-68071) and IRDye 800CW Goat anti-Mouse IgG Secondary Antibody (1:2000 dilution, LI-COR 926-32210). Finally, the membrane was washed again with 1× TBST buffer 3 times. Fluorescence was detected using the Odyssey CLx Imaging System, and the data were analyzed with Empiria Studio Software and GraphPad Prism 9. Table 4 and Table 5 list the degradation results, where the degradation potency is represented by DC50, the concentration of compounds to cause the degradation of 50% of the corresponding proteins. FIGS. 45-49 show western blots illustrating the EGFR degradative activity of exemplary Compound of the present disclosure and a comparator Compound A in different cell lines 24 h after administration. The Compound referred herein as Compound A is disclosed in WO 2022/171123 A1 (see, compound 133, page 46; published Aug. 18, 2022). WO 2022/171123 A1 discloses phosphine oxide derived molecules with EGFR degradation activity.

[2] = tested on: BaF3_DTC; experiment: Cell growth inhibition assay (CellTiter-Glo), BaF3_DTC; conditions: 72 h; Table 6; BaF3_DTC cells, three days, CellTiter-Glo; read-out: BaF3_DTC GI50
Protocol: (§2) Cells were seeded in a 96-well plate (Corning 3610) with 90 μL of culture medium per well, and plates were incubated at 37° C. overnight. A 1,000× DMSO stock solution of the desired compound was prepared the following day. A compound dilution plate was prepared by diluting the stock solution 1:100 in the corresponding cell culture medium, 10 μL of the diluted compound solution was added to each 96-well plate well containing the seeded cells. […] The content of the wells was mixed by shaking continuously for 10 min, and luminescence was measured using Envision (PerkinElmer). The data were analyzed with GraphPad Prism 9 (see FIG. 50).
(§3) Table 6, Table 7, and Table 8 list the cell growth inhibition results, where Gls0 represents the compound concentration to cause 50% cell growth inhibition in comparison with DMSO.

[3] = tested on: BaF3_ASV; experiment: Cell growth inhibition assay (CellTiter-Glo), BaF3_ASV; conditions: 72 h
Protocol: as §2, §3

[4] = tested on: BaF3_DTC (EGFR_Exon19del/T790M/C797S); experiment: EGFR degradation assay (western blot), BaF3_DTC cells; conditions: BaF3_DTC cells (EGFR_Exon19del/T790M/C797S), compounds 24 h, western blot; read-out: BaF3_DTC DC50
Protocol: as §1

[5] = molecular target: T2, A431 (EGFR_WT) (Homo sapiens, UniProt P00533); experiment: EGFR degradation assay (western blot), A431 cells; conditions: compounds 24 h, western blot, read-out: A431 DC50
T2 construct: endogenous in cells; host or cells: A431, NCI-H2073, NCI-H292
T2 sequence (P00533 25-1210): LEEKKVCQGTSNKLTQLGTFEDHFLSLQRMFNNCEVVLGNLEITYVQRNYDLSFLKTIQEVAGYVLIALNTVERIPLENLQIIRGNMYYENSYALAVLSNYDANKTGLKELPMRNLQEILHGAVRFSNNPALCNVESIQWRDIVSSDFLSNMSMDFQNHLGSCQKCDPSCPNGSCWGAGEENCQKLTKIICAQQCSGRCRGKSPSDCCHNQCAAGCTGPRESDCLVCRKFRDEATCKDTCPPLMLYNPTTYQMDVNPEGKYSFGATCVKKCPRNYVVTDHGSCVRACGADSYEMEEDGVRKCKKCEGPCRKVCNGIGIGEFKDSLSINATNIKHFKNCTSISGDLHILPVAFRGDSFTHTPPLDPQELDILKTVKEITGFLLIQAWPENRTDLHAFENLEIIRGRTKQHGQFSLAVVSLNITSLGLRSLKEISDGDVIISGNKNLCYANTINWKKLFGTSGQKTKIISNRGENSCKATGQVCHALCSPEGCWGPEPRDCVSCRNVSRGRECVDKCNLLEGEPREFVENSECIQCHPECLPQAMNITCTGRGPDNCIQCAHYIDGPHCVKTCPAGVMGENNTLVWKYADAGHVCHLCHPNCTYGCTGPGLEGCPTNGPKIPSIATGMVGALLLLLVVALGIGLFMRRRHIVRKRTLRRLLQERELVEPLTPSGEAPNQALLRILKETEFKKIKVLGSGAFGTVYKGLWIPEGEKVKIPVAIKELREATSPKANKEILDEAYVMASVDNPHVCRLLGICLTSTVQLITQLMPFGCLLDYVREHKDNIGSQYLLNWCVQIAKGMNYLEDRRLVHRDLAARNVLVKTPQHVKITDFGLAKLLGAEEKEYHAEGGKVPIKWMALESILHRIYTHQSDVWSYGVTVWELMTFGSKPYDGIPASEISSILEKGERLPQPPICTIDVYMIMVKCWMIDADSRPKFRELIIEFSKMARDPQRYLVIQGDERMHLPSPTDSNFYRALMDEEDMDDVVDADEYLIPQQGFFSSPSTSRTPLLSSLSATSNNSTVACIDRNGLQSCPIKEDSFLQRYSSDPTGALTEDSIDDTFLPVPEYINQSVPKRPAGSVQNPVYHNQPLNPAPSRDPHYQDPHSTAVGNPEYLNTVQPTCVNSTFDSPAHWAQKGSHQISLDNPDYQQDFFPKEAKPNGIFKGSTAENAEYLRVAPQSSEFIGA
Protocol: as §1

[6] = tested on: A431; experiment: Cell growth inhibition assay (CellTiter-Glo), A431; conditions: Homo sapiens, A-431, 72 h, Table 6; A431 cells, three days, CellTiter-Glo; read-out: A431 GI50
Protocol: as §2, §3

[7] = Table 6, BaF3_ASV cells, three days, CellTiter-Glo, read-out: BaF3_ASV GI50

| SMILES | DC50 [1] | GI50 [2] | GI50 ([3]; read-out: BaF3_ASV GI50 (nM)) | DC50 [4] | DC50 [5] | GI50 [6] | GI50 [3, 7] |
| --- | --- | --- | --- | --- | --- | --- | --- |
| CCc1cc(Nc2ncc(Br)c(Nc3ccc4nccnc4c3NS(C)(=O)=O)n2)c(OC)cc1N1CCC(N2CCN(CCc3cccc4c3oc(=O)n4C3CCC(=O)NC3=O)CC2)CC1 (stereo not drawn) [Compound 77, N-(6-((5-bromo-2-((4-(4-(4-(2-(3-(2,6-dioxopiperidin-3-yl)-2-oxo-2,3-dihydrobenzo[d]oxazol-7-yl)ethyl)piperazin-1-yl)piperidin-1-yl)-5-ethyl-2-methoxyphenyl)amino)pyrimidin-4-yl)amino)quinoxalin-5-yl)methanesulfonamide] | > 1000 nM | 5.39 nM | 131 nM | 2.7 nM | > 1000 nM | > 3000 nM |  |
| CCc1cc(Nc2ncc(Br)c(Nc3ccc4nccnc4c3NS(C)(=O)=O)n2)c(OC)cc1N1CCC(N2CC(N3CCN(c4ccc5c(c4)CN([C@H]4CCC(=O)NC4=O)C5=O)CC3)C2)CC1 [Compound 63, (S)-N-(6-((5-bromo-2-((4-(4-(3-(4-(2-(2,6-dioxopiperidin-3-yl)-1-oxoisoindolin-5-yl)piperazin-1-yl)azetidin-1-yl)piperidin-1-yl)-5-ethyl-2-methoxyphenyl)amino)pyrimidin-4-yl)amino)quinoxalin-5-yl)methanesulfonamide] | 18.2 nM | 6.23 nM |  | 12.9 nM |  | > 1000 nM | 40.8 nM |
| CCc1cc(Nc2ncc(Br)c(Nc3ccc4nccnc4c3NS(C)(=O)=O)n2)c(OC)cc1N1CCC(N2CCC(N3CCN(c4ccc5c(c4)CN([C@H]4CCC(=O)NC4=O)C5=O)CC3)CC2)CC1 [Compound 36, (S)-N-(6-((5-bromo-2-((4-(4-(4-(2-(2,6-dioxopiperidin-3-yl)-1-oxoisoindolin-5-yl)piperazin-1-yl)-[1,4′-bipiperidin]-1′-yl)-5-ethyl-2-methoxyphenyl)amino)pyrimidin-4-yl)amino)quinoxalin-5-yl)methanesulfonamide] | 102 nM | 9.12 nM |  | 1.27 nM |  | > 1000 nM | 77.6 nM |
| CCc1cc(Nc2ncc(Br)c(Nc3ccc4nccnc4c3NS(C)(=O)=O)n2)c(OC)cc1N1CCC(N2CCN(CCC3CCN(c4cc(F)c(C5CCC(=O)NC5=O)c(F)c4)CC3)CC2)CC1 (stereo not drawn) [Compound 90, N-(6-((5-bromo-2-((4-(4-(4-(2-(1-(4-(2,6-dioxopiperidin-3-yl)-3,5-difluorophenyl)piperidin-4-yl)ethyl)piperazin-1-yl)piperidin-1-yl)-5-ethyl-2-methoxyphenyl)amino)pyrimidin-4-yl)amino)quinoxalin-5-yl)methanesulfonamide] | 135 nM | 19.1 nM |  | 38.6 nM |  | > 1000 nM | 89.4 nM |
| COc1cc(N2CCC(N3CCN(CC4CCN(c5ccc6c(c5)CN(C5CCC(=O)NC5=O)C6=O)CC4)CC3)CC2)c(-c2cnn(C)c2)cc1Nc1ncc(Br)c(Nc2ccc3nccnc3c2NS(C)(=O)=O)n1 (stereo not drawn) [Compound 32, N-(6-((5-bromo-2-((4-(4-(4-((1-(2-(2,6-dioxopiperidin-3-yl)-1-oxoisoindolin-5-yl)piperidin-4-yl)methyl)piperazin-1-yl)piperidin-1-yl)-2-methoxy-5-(1-methyl-1H-pyrazol-4-yl)phenyl)amino)pyrimidin-4-yl)amino)quinoxalin-5-yl)methanesulfonamide] | 26 nM | 10.9 nM |  | 3.1 nM |  | 214 nM | 35.6 nM |
| CCc1cc(Nc2ncc(Br)c(Nc3ccc4nccnc4c3NS(C)(=O)=O)n2)c(OC)cc1N1CCC(CN2CCC3(CC2)CN(c2ccc4c(c2)CN(C2CCC(=O)NC2=O)C4=O)C3)CC1 (stereo not drawn) [Compound 56, N-(6-((5-bromo-2-((4-(4-((2-(2-(2,6-dioxopiperidin-3-yl)-1~oxoisoindolin-5-yl)-2,7-diazaspiro[3.5]nonan-7-yl)methyl)piperidin-1-yl)-5-ethyl-2-methoxyphenyl)amino)pyrimidin-4-yl)amino)quinoxalin-5-yl)methanesulfonamide] | 18 nM | 6.08 nM |  | 9.32 nM |  | > 1000 nM | 37.2 nM |
| CCc1cc(Nc2ncc(Br)c(Nc3ccc4nccnc4c3NS(C)(=O)=O)n2)c(OC)cc1N1CCC(N2CCN(CCNc3cccc4c3CN(C3CCC(=O)NC3=O)C4=O)CC2)CC1 (stereo not drawn) [Compound 91, N-(6-((5-bromo-2-((4-(4-(4-(2-((2-(2,6-dioxopiperidin-3-yl)-1-oxoisoindolin-4-yl)amino)ethyl)piperazin-1-yl)piperidin-1-yl)-5-ethyl-2-methoxyphenyl)amino)pyrimidin-4-yl)amino)quinoxalin-5-yl)methanesulfonamide] | 53.7 nM | 9.26 nM |  | 8.04 nM |  | 448 nM | 48.6 nM |
| CCc1cc(Nc2ncc(Br)c(Nc3ccc4nccnc4c3NS(C)(=O)=O)n2)c(OC)cc1N1CCC(N2CCC(CN3CCN(c4ccc5c(c4)CN([C@H]4CCC(=O)NC4=O)C5=O)CC3)CC2)CC1 [Compound 35, (S)-N-(6-((5-bromo-2-((4-(4-((4-(2-(2,6-dioxopiperidin-3-yl)-1-oxoisoindolin-5-yl)piperazin-1-yl)methyl) [1,4′-bipiperidin]-1′-yl)-5-ethyl-2-methoxyphenyl)amino)pyrimidin-4-yl)amino)quinoxalin-5-yl)methanesulfonamide] | 86.5 nM | 13.7 nM |  | 66 nM |  | > 1000 nM | 126 nM |
| CCc1cc(Nc2ncc(Br)c(Nc3ccc4nccnc4c3NS(C)(=O)=O)n2)c(OC)cc1N1CCC2(CC1)CN(CC1CCN(c3ccc4c(c3)CN(C3CCC(=O)NC3=O)C4=O)CC1)C2 (stereo not drawn) [Compound 40, N-(6-((5-bromo-2-((4-(2-((1-(2-(2,6-dioxopiperidin-3-yl)-1-oxoisoindolin-5-yl)piperidin-4-yl)methyl)-2,7-diazaspiro[3.5]nonan-7-yl)-5-ethyl-2-methoxyphenyl)amino)pyrimidin-4-yl)amino)quinoxalin-5-yl)methanesulfonamide] | 93.8 nM | 7.99 nM |  | 20.8 nM |  | 399 nM | 60.2 nM |
| CCc1cc(Nc2ncc(Br)c(Nc3ccc4nccnc4c3NS(C)(=O)=O)n2)c(OC)cc1N1CCC(N2CCC3(CCN(c4ccc5c(c4)CN(C4CCC(=O)NC4=O)C5=O)CC3)CC2)CC1 (stereo not drawn) [Compound 53, N-(6-((5-bromo-2-((4-(4-(9-(2-(2,6-dioxopiperidin-3-yl)-1-oxoisoindolin-5-yl)-3,9-diazaspiro[5.5]undecan-3-yl)piperidin-1-yl)-5-ethyl-2-methoxyphenyl)amino)pyrimidin-4-yl)amino)quinoxalin-5-yl)methanesulfonamide] | > 1000 nM | 22.7 nM |  | 5.99 nM |  | > 1000 nM | 330 nM |
